According to the supplement of paper PMC10307832:

What was measured:
Test in all cases: relative viability (nuclei count vs DMSO), 5 days (fraction); higher = more cells survive
[1] = compound: CC1=CC(=NN1)NC2=CC(=NC(=N2)/C=C/C3=CC=CC=C3)N4CCN(CC4)C + CC(=O)c1c(C)c2cnc(Nc3ccc(N4CCNCC4)cn3)nc2n(C2CCCC2)c1=O [Palbociclib] (partner 0.5 µM)
Summary of the method: (§1)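 Lung cancer cell lines in 1536-well plates got either a single drug or a fixed anchor-drug dose together with five library-drug doses (not always all listed) in √10 steps, by pin tool, on the day after seeding. Nuclei were counted after 5 days, and relative viability is the treated-to-vehicle ratio of nuclei counts. Values are medians of duplicate plates.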

[2] = compound: CC1=CC(=NN1)NC2=CC(=NC(=N2)/C=C/C3=CC=CC=C3)N4CCN(CC4)C + C[C@@H](Oc1cc(-c2cnn(C3CCNCC3)c2)cnc1N)c1c(Cl)ccc(F)c1Cl [Crizotinib] (partner 1 µM)
Summary of the method: as §1

[3] = compound: COC1=CC(c2cc3ccccc3[nH]2)=N/C1=C\c1[nH]c(C)cc1C [Obatoclax] + C[C@@H](Oc1cc(-c2cnn(C3CCNCC3)c2)cnc1N)c1c(Cl)ccc(F)c1Cl [Crizotinib] (partner 1 µM)
Summary of the method: as §1

[4] = compound: COC1=CC(c2cc3ccccc3[nH]2)=N/C1=C\c1[nH]c(C)cc1C [Obatoclax] + O=C(c1cc(Cc2n[nH]c(=O)c3ccccc23)ccc1F)N1CCN(C(=O)C2CC2)CC1 [Olaparib] (partner 8 µM)
Summary of the method: as §1

Cell Line: NCI-H650
- relative viability ([1]; first compound 0.08 µM): 0.288
- relative viability ([1]; first compound 0.253 µM): 0.321
- relative viability ([1]; first compound 0.8 µM): 0.339
- relative viability ([1]; first compound 2.53 µM): 0.294
- relative viability ([1]; first compound 8 µM): 0.177
- relative viability ([2]; first compound 0.08 µM): 0.916
- relative viability ([2]; first compound 0.253 µM): 0.739
- relative viability ([2]; first compound 0.8 µM): 0.515
- relative viability ([2]; first compound 2.53 µM): 0.358
- relative viability ([2]; first compound 8 µM): 0.188
- relative viability ([3]; first compound 0.01 µM): 0.717
- relative viability ([3]; first compound 0.03162 µM): 0.668
- relative viability ([3]; first compound 0.1 µM): 0.561
- relative viability ([3]; first compound 0.3162 µM): 0.498
- relative viability ([3]; first compound 1 µM): 0.323
- relative viability ([4]; first compound 0.01 µM): 0.385
- relative viability ([4]; first compound 0.03162 µM): 0.388
- relative viability ([4]; first compound 0.3162 µM): 0.264
- relative viability ([4]; first compound 1 µM): 0.18
